Test results published in patent publication US5932555A (priority 1997, dated 1999).
Converted amounts (≈) assume the structure as drawn. Like-named read-outs stand apart in the source and are kept apart here.

Tests used:
[1] = test system: CDF1 mice; test: Repeated administration toxicity test (intraperitoneal); type: in vivo, mouse (CDF1); details: for Body weight, Day 0: Day 0 (baseline); for Number of survived animals, Day 4 / Number of survived animals, Day 5 / Number of survived animals, Day 6 / Number of survived animals, Day 7 / Number of survived animals, Day 8 / Number of survived animals, Day 10: of 10
Description: (§1) As the comparative control, test solutions of adriamycin were prepared in the same manner. […] The number with time of survived animals after administration and the average body weights on Days 0, 5, and 10 were determined.

[2] = as above; type: in vivo, mouse (CDF1); details: mouse, in vivo, ip, read-out: Fatality rate
Description: as §1

[3] = test system: P388; test: Mouse in vivo antitumor test, P388 transplanted
Description: (§2) 2×10^5 cells of P388 or P388/ADR were inoculated intraperitoneally into each of CDF1 mice (male, each weighing 20 g, 10 animals/group), and from the next day, the test solution was administered at 10, 5, and 1 mg/kg body weight/day respectively by intraperitoneal injection of 200 μl sample at each concentration once a day for 10 successive days. The numbers with time of mice which survived after administration was counted and the average survival days and T/C (survival days of treated mice/survival days of control mice) were calculated. The average body weights after 10 days were also measured.

[4] = test system: adriamycin-resistant P388; test: Cytotoxicity test on adriamycin-resistant P388 (P388/ADR) (MTT, 72 h); type: cell-based; details: Mus musculus, P388, 72 h, read-out: IC50 (growth inhibition)
Description: (§3) Cultured tumor cell lines P388 and P388/ADR were suspended in RPMI1640 medium containing 10% heat inactivated fetal calf serum (FCS) and 20 μM 2-mercaptoethanol whereby a cell suspension (5×10^4 cells/ml) was prepared.
A sample examined was dissolved in methanol, then diluted with RPMI 1640 medium and subjected to serial 2-fold dilution starting at the concentration of 0.1 mg/ml. 180 μl of the cell suspension and 20 μl of the sample solution were added into a 96-well micro-titer plate and incubated at 37° C. in wet 5% CO2 gas/95% air. 72 hours thereafter, cell growth was measured by a calorimetric assay method using 3-(4,5-dimethyl-2-thiazolyl)-2,5-diphenyl-2H-tetrazolium bromide (MTT) as follows: 20 μl of 2 mg/ml MTT solution was added to each well and the cells were incubated for 4 hours at 37° C. Thereafter, 50 μl of 50% dimethylformamide solution containing 20% sodium dodecyl sulfate was added to each well and allowed to stand, so that the formed violet formazan crystal was dissolved, and its absorbance at 570 nm was measured in a microplate absorbance photometer (Immunoreader) and used as an indicator of the growth. The result was expressed in terms of the concentration of a sample at which growth was inhibited by 50% (IC50), which was determined from the relationship between sample concentrations and degrees of inhibition calculated using the following equation (1):
(§4) Degree of inhibition=[1-(absorbance in presence of sample)/(absorbance in
(§5) absence of sample)]×100 (1)

[5] = test system: P388/ADR; test: Mouse in vivo antitumor test, P388/ADR transplanted
Description: as §2

[6] = test system: P388; test: Cytotoxicity test on cultured tumor cell line P388 (MTT, 72 h); type: cell-based; details: Mus musculus, P388, 72 h, read-out: IC50 (growth inhibition)
Description: as §3
72 hours thereafter, cell growth was measured by a calorimetric assay method using 3-(4,5-dimethyl-2-thiazolyl)-2,5-diphenyl-2H-tetrazolium bromide (MTT) as follows: 20 μl of 2 mg/ml MTT solution was added to each well and the cells were incubated for 4 hours at 37° C. Thereafter, 50 μl of 50% dimethylformamide solution containing 20% sodium dodecyl sulfate was added to each well and allowed to stand, so that the formed violet formazan crystal was dissolved, and its absorbance at 570 nm was measured in a microplate absorbance photometer (Immunoreader) and used as an indicator of the growth.
as §4, §5

[7] = prior art, depending on case; cited from earlier work
[8] = test system: rejection of the transplant; details: as an immunosuppressive agent, prior art; cited from earlier work
[9] = P388, 1 mg/kg/day i.p. × 10 days
[10] = P388, 5 mg/kg/day i.p. × 10 days
[11] = P388, 10 mg/kg/day i.p. × 10 days
[12] = P388/ADR, 1 mg/kg/day i.p. × 10 days
[13] = P388/ADR, 5 mg/kg/day i.p. × 10 days
[14] = P388/ADR, 10 mg/kg/day i.p. × 10 days

Compound: COc1cccc2c1C(=O)c1c(O)c3c(c(O)c1C2=O)C[C@@](O)(C(=O)CO)C[C@@H]3O[C@H]1C[C@H](N)[C@H](O)[C@H](C)O1 [Adriamycin]
- Body weight, Day 0 ([1]; 1 mg/kg/day i.p. group): 21.9 g
- Number of survived animals, Day 4 ([1]; 1 mg/kg/day i.p. × 10 days): 10
- Number of survived animals, Day 5 ([1]; 1 mg/kg/day i.p. × 10 days): 10
- Number of survived animals, Day 6 ([1]; 1 mg/kg/day i.p. × 10 days): 10
- Number of survived animals, Day 7 ([1]; 1 mg/kg/day i.p. × 10 days): 10
- Number of survived animals, Day 8 ([1]; 1 mg/kg/day i.p. × 10 days): 10
- Number of survived animals, Day 10 ([1]; 1 mg/kg/day i.p. × 10 days): 10
- Body weight, Day 5 ([1]; 1 mg/kg/day i.p.): 23.5 g
- Body weight, Day 10 ([1]; 1 mg/kg/day i.p.): 24.5 g
- Body weight, Day 0 ([1]; 5 mg/kg/day i.p. group): 21.6 g
- Number of survived animals, Day 4 ([1]; 5 mg/kg/day i.p. × 10 days): 10
- Number of survived animals, Day 5 ([1]; 5 mg/kg/day i.p. × 10 days): 9
- Number of survived animals, Day 6 ([1]; 5 mg/kg/day i.p. × 10 days): 9
- Number of survived animals, Day 7 ([1]; 5 mg/kg/day i.p. × 10 days): 8
- Number of survived animals, Day 8 ([1]; 5 mg/kg/day i.p. × 10 days): 3
- Number of survived animals, Day 10 ([1]; 5 mg/kg/day i.p. × 10 days): 3
- Body weight, Day 5 ([1]; 5 mg/kg/day i.p.): 21.0 g
- Body weight, Day 10 ([1]; 5 mg/kg/day i.p.): 15.8 g
- Body weight, Day 0 ([1]; 10 mg/kg/day i.p. group): 21.8 g
- Number of survived animals, Day 4 ([1]; 10 mg/kg/day i.p. × 10 days): 10
- Number of survived animals, Day 5 ([1]; 10 mg/kg/day i.p. × 10 days): 9
- Number of survived animals, Day 6 ([1]; 10 mg/kg/day i.p. × 10 days): 8
- Number of survived animals, Day 7 ([1]; 10 mg/kg/day i.p. × 10 days): 3
- Number of survived animals, Day 8 ([1]; 10 mg/kg/day i.p. × 10 days): 0
- Number of survived animals, Day 10 ([1]; 10 mg/kg/day i.p. × 10 days): 0
- Body weight, Day 5 ([1]; 10 mg/kg/day i.p.): 17.7 g
- survival in repeated administration ([1]; i.p. 10 days, in words): some animals in the group given adriamycin died
- growth / body weight in repeated administration ([1]; i.p. 10 days, in words, vs control): growth was inferior to the control
- mortality ([2]; 1 mg/kg/day i.p. × 10 days): 0%
- mortality ([2]; 5 mg/kg/day i.p. × 10 days): 70%
- mortality ([2]; 10 mg/kg/day i.p. × 10 days): 100%
- T/C [3, 9]: 120%
- average survival days [3, 9]: 12.4 days
- T/C [3, 10]: 81%
- average survival days [3, 10]: 8.4 days
- T/C [3, 11]: 76%
- average survival days [3, 11]: 7.8 days
- therapeutic effect (improvement in survival rate) ([3]; P388-transplanted mice, adriamycin 1 mg/kg/day vs 0406TP-1): same degree of therapeutic effect
- therapeutic effect at high dosage ([3]; more than 5 mg/kg body weight/day, due to its toxicity): did not show therapeutic effect
- IC50 [4]: 0.53 mg/L (≈ 0.975 µM)
- T/C [5, 12]: 96%
- average body weight after 10 days [5, 12]: 23.5 g
- average survival days [5, 12]: 10.7 days
- T/C [5, 13]: 63%
- average survival days [5, 13]: 7.0 days
- T/C [5, 14]: 68%
- average survival days [5, 14]: 7.5 days
- therapeutic effect ([5]; P388/ADR-transplanted mice): did not show therapeutic effect
- IC50 [6]: 0.027 mg/L (≈ 0.0497 µM)

Compound: C=CC[C@@H]1/C=C(\C)C[C@H](C)C[C@H](OC)[C@H]2O[C@@](O)(C(=O)C(=O)N3CCCC[C@H]3C(=O)O[C@H](/C(C)=C/[C@@H]3CC[C@@H](O)[C@H](OC)C3)[C@H](C)[C@@H](O)CC1=O)[C@H](C)C[C@@H]2OC [tacrorims (FK506)]
- side effects [7]: obstacles to the pancreas and kidney
- immunosuppressive results [8]: preferable results
